Experimental data taken from the supplement of paper PMC10307832.

Assays:
Assay in all cases: relative viability (nuclei count vs DMSO), 5 days (fraction); higher = more cells survive
Mirin + Foretinib = compound: N=C1NC(=O)/C(=C/c2ccc(O)cc2)S1 [Mirin] + COc1cc2c(Oc3ccc(NC(=O)C4(C(=O)Nc5ccc(F)cc5)CC4)cc3F)ccnc2cc1OCCCN1CCOCC1 [Foretinib] (partner 0.25 µM)
Outline: (§1)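 Lung cancer cell lines were seeded in 1536-well plates and dosed by pin tool the next day, with either a single drug or a fixed anchor-drug dose combined with five library-drug doses (not always all listed) spaced in √10 steps. Five days later, one step fixed the cells and stained their nuclei (final 0.05% Triton X-100, 1% formaldehyde, 1 ug/ml Hoechst), and nuclei were counted on 4× images. Relative viability is the nuclei count in treated wells divided by the count in vehicle wells, and each value is the median of duplicate plates.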

[1] = compound: CCC1=CN=CN=C1N2CCN(CC2)CC3=NC4=C(N3)C=C(C=C4)C(F)(F)F + Nc1ncn([C@H]2C[C@H](O)[C@@H](CO)O2)c(=O)n1 [Decitabine] (partner 2 µM)
Outline: as §1

[2] = compound: CCn1c(-c2nonc2N)nc2cnc(Oc3cccc(NC(=O)c4ccc(OCCN5CCOCC5)cc4)c3)cc21 + Nc1ncn([C@H]2C[C@H](O)[C@@H](CO)O2)c(=O)n1 [Decitabine] (partner 2 µM)
Outline: as §1

[3] = compound: CCC1=CN=CN=C1N2CCN(CC2)CC3=NC4=C(N3)C=C(C=C4)C(F)(F)F + COc1cccc2cc(-c3nc([C@H]4CC[C@H](C(=O)O)CC4)n4ncnc(N)c34)[nH]c12 [OSI-027] (partner 0.5 µM)
Outline: as §1

| Cell Line | relative viability (Mirin + Foretinib; first compound 0.25 µM) | relative viability (Mirin + Foretinib; first compound 0.7906 µM) | relative viability (Mirin + Foretinib; first compound 2.5 µM) | relative viability (Mirin + Foretinib; first compound 7.906 µM) | relative viability (Mirin + Foretinib; first compound 25 µM) | relative viability ([1]; first compound 0.04 µM) | relative viability ([1]; first compound 0.1265 µM) | relative viability ([1]; first compound 0.4 µM) | relative viability ([1]; first compound 1.265 µM) | relative viability ([1]; first compound 4 µM) | relative viability ([2]; first compound 0.04 µM) | relative viability ([2]; first compound 0.1265 µM) | relative viability ([2]; first compound 0.4 µM) | relative viability ([2]; first compound 1.265 µM) | relative viability ([2]; first compound 4 µM) | relative viability ([3]; first compound 0.04 µM) | relative viability ([3]; first compound 0.1265 µM) | relative viability ([3]; first compound 0.4 µM) | relative viability ([3]; first compound 1.265 µM) | relative viability ([3]; first compound 4 µM) |
| --- | --- | --- | --- | --- | --- | --- | --- | --- | --- | --- | --- | --- | --- | --- | --- | --- | --- | --- | --- | --- |
| NCI-H358 | 0.734 | 0.742 | 0.739 | 0.565 | 0.406 | 0.206 | 0.204 | 0.158 | 0.174 | 0.217 | 0.219 | 0.273 | 0.19 | 0.198 | 0.161 | 0.867 | 0.656 | 0.772 | 0.62 | 0.764 |
| NCI-H441 | 1.02 | 1.16 | 0.995 | 1.09 | 1.05 | 0.239 | 0.212 | 0.21 | 0.264 | 0.315 | 0.307 | 0.183 | 0.227 | 0.265 | 0.261 | 0.478 | 0.611 | 0.543 | 0.56 | 0.6 |
| NCI-H460 | 1.08 | 1.04 | 0.999 | 1.04 | 1.08 | 0.535 | 0.424 | 0.496 | 0.435 | 0.452 | 0.515 | 0.574 | 0.383 | 0.245 | 0.148 | 0.752 | 0.59 | 0.645 | 0.538 | 0.595 |
| NCI-H520 | 0.742 | 0.784 | 0.874 | 0.874 | 0.439 | 0.598 | 0.414 | 0.426 | 0.424 | 0.436 | 0.611 | 0.524 | 0.468 | 0.347 | 0.37 | 0.261 | 0.32 | 0.268 | 0.214 | 0.248 |
| NCI-H596 | 0.826 | 0.953 | 1.03 | 0.916 | 1.08 | 1 | 1.01 | 0.958 | 0.853 | 1.06 | 1.01 | 1.04 | 0.969 | 0.926 | 0.932 | 0.723 | 0.683 | 0.743 | – | 0.915 |
| NCI-H647 | 1.4 | 1.27 | 1.14 | 1.32 | 0.946 | 0.449 | 0.273 | 0.356 | 0.325 | 0.301 | 0.379 | 0.426 | 0.276 | 0.288 | 0.347 | 0.671 | 0.855 | 0.557 | 0.413 | 0.462 |
| NCI-H650 | 0.834 | 1.07 | 1.06 | – | 1.13 | 0.313 | 0.306 | 0.328 | 0.271 | 0.287 | 0.288 | 0.318 | 0.301 | 0.237 | 0.32 | 0.444 | 0.427 | 0.555 | 0.543 | 0.511 |
| NCI-H661 | 1.05 | 1.06 | 1.02 | 1.07 | 0.975 | 0.557 | 0.522 | 0.524 | 0.472 | 0.55 | 0.498 | 0.559 | 0.406 | 0.448 | 0.33 | 0.629 | 0.674 | 0.669 | 0.586 | 0.621 |
| NCI-H727 | 0.9 | 0.889 | 1.18 | 1.14 | 1.12 | 0.798 | 0.875 | 0.956 | 0.655 | 0.941 | – | 1.07 | 0.676 | 0.662 | 0.973 | 0.531 | 0.618 | 0.581 | 0.423 | 0.533 |
| NCI-H838 | 1.05 | 1.08 | 1.08 | 1 | 0.852 | 0.418 | 0.408 | 0.475 | 0.433 | 0.444 | 0.422 | 0.393 | 0.303 | 0.331 | 0.271 | 0.443 | 0.438 | 0.403 | 0.313 | 0.354 |
| NCI-H1355 | 0.67 | 1 | 0.967 | 0.971 | 0.918 | 0.326 | 0.388 | 0.344 | 0.339 | 0.359 | 0.31 | 0.36 | 0.358 | 0.364 | 0.307 | 0.433 | 0.406 | 0.373 | 0.327 | 0.391 |
| NCI-H1395 | 0.908 | 0.994 | 1.03 | 0.977 | 1.14 | 0.705 | 0.676 | 0.692 | – | 0.743 | 0.701 | 0.601 | 0.646 | 0.459 | 0.521 | 0.572 | 0.669 | 0.615 | 0.641 | 0.671 |
| NCI-H1437 | 1.31 | 1.31 | 1.22 | 1.2 | 1.19 | 0.537 | 0.529 | 0.531 | 0.589 | 0.487 | 0.489 | 0.61 | 0.547 | 0.499 | 0.426 | 0.857 | 0.847 | 0.777 | 0.667 | 0.749 |
